Among the data in patent US20250270227A1, “CAMPTOTHECIN DERIVATIVE, AND PHARMACEUTICAL COMPOSITION AND USE THEREOF” (SIMCERE ZAIMING PHARMACEUTICAL CO., LTD., priority 2021, published 2025) are IC50 values, retold here.

pIC50: −log10 of the molar value. Read-outs that look alike come from different tables or passages of the source.

The target of one assay is CYP2C9 (Homo sapiens (Human), UniProt P11712). The experiment in a line: Inhibitory effect on CYP enzymatic activity in human liver microsomes. The assay is classed as in vitro ADME. How it is done:
The inhibition of CYP2C9, CYP2D6 and CYP3A4 enzymatic activities by the compounds of the present disclosure was determined by the following experimental method.
• 1. Human liver microsomes (Corning 452117) • 2. NADPH (Solarbio 705Y021) • 3. Positive substrates diclofenac (Sigma SLBV3438), dextromethorphan (TRC 3-EDO-175-1) and midazolam (Cerilliant FE01161704) • 4. Positive inhibitors sulfaphenazole (D. Ehrenstorfer GmbH 109012), quinidine (TCI WEODL-RE) and ketoconazole (Sigma 100M1091V) • 5. AB Sciex Triple Quad 5500 liquid chromatography-mass spectrometry
• 1. Preparation of 100 mM phosphate buffered saline (PBS): 7.098 g of Na2HPO4 was weighed, 500 mL of pure water was added and subjected to ultrasonic dissolution to obtain solution A. 3.400 g of KH2PO4 was weighed, 250 mL of pure water was added and subjected to ultrasonic dissolution to obtain solution B. Solution A was placed on a stirrer and solution B was slowly added until the pH value reached 7.4 to prepare 100 mM PBS buffer. • 2. Preparation of 10 mM NADPH solution with 100 mM PBS buffer. The 10 mM stock solution of the compound of the present disclosure was diluted with DMSO to obtain a 200× concentration of compound working solution (6000, 2000, 600, 200, 60, 20, 0 μM). The stock solution of positive inhibitors was diluted with DMSO to obtain a 200× concentration of positive inhibitor working solution (sulfaphenazole, 1000, 300, 100, 30, 10, 3, 0 μM; quinidine/ketoconazole, 100, 30, 10, 3, 1, 0.3, 0 μM). A 200× concentration of substrate working solution (120 μM diclofenac, 400 μM dextromethorphan, and 200 μM midazolam) was prepared with water, acetonitrile, or acetonitrile/methanol. • 3. 2 μL of 20 mg/ml liver microsome solution, 1 μL of substrate working solution, 1 μL of compound working solution and 176 μL of PBS buffer were taken, mixed uniformly, and pre-incubated in a 37° C. water bath for 15 min. To the positive control group was added 1 μL of sulfaphenazole, quinidine or ketoconazole working solution instead of compound working solution. A 10 mM NADPH solution was also pre-incubated in the 37° C. water bath for 15 min. After 15 min, 20 μL of NADPH was taken and added to each well to initiate the reaction, and the reaction was incubated at 37° C. for 5 min (CYP2C9), 20 min (CYP2D6) or 5 min (CYP3A4). Double samples were set for all incubation samples. After the corresponding time of incubation, 400 μL of glacial methanol containing internal standard was added to all samples to stop the reaction. The mixture was mixed uniformly by vortex and centrifuged at 3220 g for 40 min at 4° C. After the completion of the centrifugation, 100 μL of the supernatant was transferred to a loading plate, and 100 μL of ultrapure water was added and mixed uniformly for LC-MS/MS analysis.
The reduction in metabolite production in the administration group compared to the control group was compared by the ratio of sample peak area to internal standard peak area, and IC50 value was calculated by Excel XLfit 5.3.1.3.
The percent remaining activity was calculated by the following equation: […]
Background: Liver microsomes are a subcellular fraction often used to study metabolism.

Assay [1] addresses hERG potassium ion channel (Homo sapiens (Human), UniProt Q12809). The experiment in a line: hERG inhibitory activity (automated patch clamp, CHO cell line stably expressing hERG). The assay is classed as cell-based. How it is done: The inhibition of hERG activity by the compounds of the present disclosure was determined by the following experimental method.
A CHO cell line stably expressing hERG ion channel was purchased from B′SYS GmbH (Switzerland). The cells were cultured in F-12 (HAM) medium containing 10% FBS buffer, 100 U/mL penicillin-streptomycin, 100 μg/mL hygromycin and 100 μg/mL G418. Trypsin substitute TrypLE™ Express was used for digestion and passage, passaging three times per week and maintaining about 80% confluence.
Iii. Preparation of Intracellular/Extracellular Fluid and Preparation of Solution of Compound to be Tested
• 1) NMDG 60 standard extracellular fluid: 80 mM sodium chloride, 60 mM NMDG, 4 mM potassium chloride, 2 mM calcium chloride, 1 mM magnesium chloride, 5 mM polyglucose, 10 mM HEPES, pH adjusted to 7.4 with HCl, osmotic pressure 289 mOsm/kg; • 2) NMDG 60 cell sealing solution: 80 mM sodium chloride, 60 mM NMDG, 4 mM potassium chloride, 10 mM calcium chloride, 1 mM magnesium chloride, 5 mM polyglucose, 10 mM HEPES, pH adjusted to 7.4 with HCl, osmotic pressure 313 mOsm/kg; • 3) Chip filling solution: 140 mM sodium chloride, 4 mM potassium chloride, 5 mM polyglucose, 10 mM HEPES, pH adjusted to 7.4 with NaOH, osmotic pressure 289 mOsm/kg; • 4) Standard extracellular fluid: 140 mM sodium chloride, 4 mM potassium chloride, 2 mM calcium chloride, 1 mM magnesium chloride, 5 mM polyglucose, 10 mM HEPES, pH adjusted to 7.4 with NaOH, osmotic pressure 298 mOsm/kg.
KF110 intracellular fluid: 10 mM EGTA, 10 mM HEPES, 10 mM potassium chloride, 10 mM sodium chloride, 110 mM potassium fluoride, pH adjusted to 7.2 with KOH, osmotic pressure greater than 280 mOsm/kg.
• 1) The compound to be tested was dissolved in DMSO and prepared into a stock solution with a final concentration of 10 mM. • 2) The stock solution was subjected to gradient dilution with DMSO as a solvent at a ratio of 1:3 into solutions with other three intermediate concentrations (mM): 3.33, 1.11 and 0.37, respectively. • 3) Before the start of the experiment, the gradient solution of the compound to be tested was diluted again with the extracellular fluid according to a ratio of 1:500 into a series of working solutions with final concentrations of: 20, 6.66, 2.22 and 0.74 (μM), respectively, while the 60 μM working solution was diluted from 10 mM stock solution according to a ratio of 3:500. […]

Chain of hERG potassium ion channel (Q12809 whole entry): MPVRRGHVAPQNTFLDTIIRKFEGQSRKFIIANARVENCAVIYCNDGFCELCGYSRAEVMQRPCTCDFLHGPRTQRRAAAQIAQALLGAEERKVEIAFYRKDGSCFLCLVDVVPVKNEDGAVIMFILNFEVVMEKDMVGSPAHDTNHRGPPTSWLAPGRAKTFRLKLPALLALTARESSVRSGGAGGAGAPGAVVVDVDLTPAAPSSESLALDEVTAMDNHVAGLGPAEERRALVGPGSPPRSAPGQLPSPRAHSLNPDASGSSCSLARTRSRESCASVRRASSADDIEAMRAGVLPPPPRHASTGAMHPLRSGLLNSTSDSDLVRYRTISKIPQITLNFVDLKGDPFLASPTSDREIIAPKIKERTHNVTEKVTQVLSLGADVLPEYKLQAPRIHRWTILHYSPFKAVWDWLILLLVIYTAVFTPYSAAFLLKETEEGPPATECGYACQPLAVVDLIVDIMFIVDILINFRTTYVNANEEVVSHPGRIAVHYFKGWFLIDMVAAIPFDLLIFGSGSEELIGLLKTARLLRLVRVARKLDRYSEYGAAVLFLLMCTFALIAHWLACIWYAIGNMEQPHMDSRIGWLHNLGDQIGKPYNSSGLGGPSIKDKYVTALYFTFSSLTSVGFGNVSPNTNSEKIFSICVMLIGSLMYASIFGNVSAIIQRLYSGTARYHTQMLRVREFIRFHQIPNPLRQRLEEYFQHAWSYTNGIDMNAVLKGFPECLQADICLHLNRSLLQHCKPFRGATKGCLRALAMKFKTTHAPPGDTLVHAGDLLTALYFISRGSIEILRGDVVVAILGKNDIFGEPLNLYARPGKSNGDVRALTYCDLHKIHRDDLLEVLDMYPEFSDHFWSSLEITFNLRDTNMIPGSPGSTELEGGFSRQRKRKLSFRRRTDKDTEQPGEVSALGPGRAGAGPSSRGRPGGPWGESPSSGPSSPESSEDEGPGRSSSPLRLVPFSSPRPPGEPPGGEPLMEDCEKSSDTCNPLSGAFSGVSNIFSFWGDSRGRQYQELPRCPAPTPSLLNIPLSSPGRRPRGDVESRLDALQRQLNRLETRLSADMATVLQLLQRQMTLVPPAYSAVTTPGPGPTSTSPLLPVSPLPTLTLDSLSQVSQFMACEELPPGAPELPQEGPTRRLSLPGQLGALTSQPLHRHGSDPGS
Chain of CYP2C9 (P11712 whole entry): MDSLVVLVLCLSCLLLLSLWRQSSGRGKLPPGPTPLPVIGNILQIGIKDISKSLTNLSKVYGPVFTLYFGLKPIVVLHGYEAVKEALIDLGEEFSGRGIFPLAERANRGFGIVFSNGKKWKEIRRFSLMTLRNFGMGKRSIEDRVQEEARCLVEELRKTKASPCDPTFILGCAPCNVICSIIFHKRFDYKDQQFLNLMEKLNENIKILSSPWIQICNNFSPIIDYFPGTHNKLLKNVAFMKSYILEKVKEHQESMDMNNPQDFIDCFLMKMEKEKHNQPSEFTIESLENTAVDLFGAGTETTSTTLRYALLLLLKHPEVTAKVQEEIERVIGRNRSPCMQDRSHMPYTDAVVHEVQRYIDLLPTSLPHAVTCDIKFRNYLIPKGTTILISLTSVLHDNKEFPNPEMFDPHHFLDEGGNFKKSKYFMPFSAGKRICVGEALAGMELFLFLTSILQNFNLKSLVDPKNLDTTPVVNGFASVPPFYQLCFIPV

Turning to `CC[C@@]1(O)C(=O)OCc2c1cc1n(c2=O)Cc2c-1nc1cc3c(cc1c2CNC(=O)C(O)C1CC1)OCO3` (single isomer, unassigned) [Compound 14-P1], the negative logarithm of the IC50 (pIC50) (as a rule, the IC50 on a negative log10 scale, so that one unit is a factor of ten) was less than 4.30 against CYP2C9 and less than 4.52 in assay [1].
As to `CC[C@@]1(O)C(=O)OCc2c1cc1n(c2=O)Cc2c-1nc1cc3c(cc1c2CNC(=O)C(O)C1CC1)OCO3` (single isomer, unassigned) [Compound 14-P2], the negative-log IC50 (pIC50) on CYP2C9 (read-out: Inhibition on CYP2C9 IC50, human liver microsomes, substrate diclofenac) was less than 4.30; in assay [1] (read-out: hERG potassium ion channel inhibitory activity IC50, CHO-hERG, SyncroPatch 384i, 0.37-30 μM), less than 4.52.
For the compound `CC[C@@]1(O)C(=O)OCc2c1cc1n(c2=O)Cc2c-1nc1cc3c(c(F)c1c2CNC(=O)[C@@H](O)C1CC1)OCO3` (single isomer, unassigned) [Compound 37-P1], the results for the negative-log IC50 (pIC50) (against CYP2C9; in assay [1]) were less than 4.30 and less than 4.52, respectively.
Regarding `[2H]C1([2H])Oc2cc3nc4c(c(CNC(=O)C(O)C5CC5)c3cc2O1)Cn1c-4cc2c(c1=O)COC(=O)[C@]2(O)CC` (stereo partly drawn) [Compound 39, 2-cyclopropyl-N-(((S)-7-ethyl-7-hydroxy-8,11-dioxo-7,8,11,13-tetrahydro-10H-[1,3]dioxolo[4,5-g]pyrano[3′,4′:6,7]indolizino[1,2-b]quinolin-14-yl-2,2-d2)methyl)-2-hydroxyacetamide], the results for the negative-log IC50 (pIC50) (against CYP2C9; in assay [1]) were less than 4.30 and less than 4.52, respectively.
